Our source for the T/C values is PubChem BioAssay AID328 (DTP/NCI, 2004).

Where “and” joins values, the source holds several entries; their conditions need not be identical. Equal entries are not always repeated. Inconclusive results and toxic doses are left out.

In this assay the test system is BDF1 mice, P388 leukemia ip, median survival T/C. Put plainly: NCI In Vivo Anticancer Drug Screen. Data for tumor model P388 Leukemia (intraperitoneal) in B6D2F1 (BDF1) mice. As to conditions: endpoint: median survival time, higher = longer survival. In short, it runs like this: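 T/C = treated-group survival ÷ vehicle-control survival; tumour transplanted into mice before dosing.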

Where [1] appears, read: dose: 12.5 mg/kg/injection, schedule: Q01DX009 (ip), vehicle: Klucel (hydroxypropylcellulose) (HPC).
Setting [2] is: dose: 25.0 mg/kg/injection, schedule: Q01DX009 (ip), vehicle: Klucel (hydroxypropylcellulose) (HPC).
Where [3] appears, read: dose: 25.0 mg/kg/injection, schedule: Q04DX003 (ip), vehicle: saline.
Setting [4] is: dose: 100.0 mg/kg/injection, schedule: Q01DX001 (ip), vehicle: Klucel (hydroxypropylcellulose) (HPC).
Where [5] appears, read: dose: 200.0 mg/kg/injection, schedule: Q01DX001 (ip), vehicle: Klucel (hydroxypropylcellulose) (HPC).
The mark [6] stands for this setting: dose: 100.0 mg/kg/injection, schedule: Q01DX009 (ip), vehicle: Klucel (hydroxypropylcellulose) (HPC).
Setting [7] is: dose: 100.0 mg/kg/injection, schedule: Q04DX003 (ip), vehicle: Klucel (hydroxypropylcellulose) (HPC).
Where [8] appears, read: dose: 200.0 mg/kg/injection, schedule: Q01DX009 (ip), vehicle: Klucel (hydroxypropylcellulose) (HPC).
Setting [9] is: dose: 200.0 mg/kg/injection, schedule: Q04DX003 (ip), vehicle: Klucel (hydroxypropylcellulose) (HPC).
[10] abbreviates: dose: 400.0 mg/kg/injection, schedule: Q01DX009 (ip), vehicle: Klucel (hydroxypropylcellulose) (HPC).
Setting [11] is: dose: 400.0 mg/kg/injection, schedule: Q04DX003 (ip), vehicle: Klucel (hydroxypropylcellulose) (HPC).
The mark [12] stands for this setting: dose: 12.5 mg/kg/injection, schedule: Q01DX009 (ip), vehicle: saline with Tween-80.

Take `O=C(NCCCl)NC1C(O)OC(CO)C(O)C1O` (stereo not given): the T/C is, setting by setting: (dose: 25.0 mg/kg/injection, schedule: Q01DX009 (ip), vehicle: water) 109 % of control; (dose: 50.0 mg/kg/injection, schedule: Q01DX009 (ip), vehicle: water) 120 % of control; (dose: 50.0 mg/kg/injection, schedule: Q04DX003 (ip), vehicle: water) 101 % of control; (dose: 100.0 mg/kg/injection, schedule: Q01DX009 (ip), vehicle: water) 92 % of control; (dose: 100.0 mg/kg/injection, schedule: Q04DX003 (ip), vehicle: water) 86 % of control; (dose: 200.0 mg/kg/injection, schedule: Q01DX009 (ip), vehicle: water) 91 % of control. Further, the T/C reads like this: (dose: 200.0 mg/kg/injection, schedule: Q04DX003 (ip), vehicle: water) 109 % of control; (dose: 400.0 mg/kg/injection, schedule: Q01DX009 (ip), vehicle: water) 94 % of control; (dose: 400.0 mg/kg/injection, schedule: Q04DX003 (ip), vehicle: water) 101 % of control.

As for `C=CC[n+]1cccc2ccccc21`, the T/C is 100 % of control (dose: 6.25 mg/kg/injection, schedule: Q04DX003 (ip), vehicle: saline); 86 % of control under setting [1]; 95 % of control (dose: 12.5 mg/kg/injection, schedule: Q04DX003 (ip), vehicle: saline); 90 % of control under setting [2]; 109 % of control under setting [3].

For `NC/C(=N\O)c1ccc(C(F)(F)F)cc1`, the T/C (dose: 50.0 mg/kg/injection, schedule: Q01DX001 (ip), vehicle: Klucel (hydroxypropylcellulose) (HPC)) is 105 % of control; the T/C under setting [4] is 114 % of control; the T/C under setting [5] is 105 % of control.

In the case of `CSc1nc2nc(Cl)c(Cl)nc2[nH]1`, the T/C reads like this: (dose: 6.25 mg/kg/injection, schedule: Q01DX009 (ip), vehicle: saline) 104 % of control; (dose: 25.0 mg/kg/injection, schedule: Q01DX009 (ip), vehicle: saline) 96 % of control; under setting [3], 99 % of control; (dose: 50.0 mg/kg/injection, schedule: Q04DX003 (ip), vehicle: saline) 102 % of control and 109 % of control; (dose: 100.0 mg/kg/injection, schedule: Q01DX009 (ip), vehicle: saline) 88 % of control; (dose: 100.0 mg/kg/injection, schedule: Q04DX003 (ip), vehicle: saline) 95 % of control and 103 % of control. Moreover, the T/C is, setting by setting: (dose: 200.0 mg/kg/injection, schedule: Q01DX009 (ip), vehicle: saline) 104 % of control; (dose: 200.0 mg/kg/injection, schedule: Q04DX003 (ip), vehicle: saline) 109 % of control; (dose: 400.0 mg/kg/injection, schedule: Q04DX003 (ip), vehicle: saline) 103 % of control.

As for `CC(C)OC(=O)c1ccc(C(C)C)cc1`, the T/C is 110 % of control (dose: 100.0 mg/kg/injection, schedule: Q01DX009 (ip), vehicle: saline with Tween-80) and 117 % of control (dose: 200.0 mg/kg/injection, schedule: Q01DX009 (ip), vehicle: saline with Tween-80).

Regarding `CC1(C)C=C(C(Br)c2cccc(Br)c2)C(=O)c2ccccc21` (stereo not given), the T/C runs as follows: under setting [6], 120 % of control; under setting [7], 90 % of control; under setting [8], 110 % of control; under setting [9], 95 % of control; under setting [10], 110 % of control; under setting [11], 109 % of control.

With `CCC(=O)OC1CC2(C)C(=CC1=O)CCC1C2CCC2(C)C(OC(=O)CC)CCC12` (stereo not given), the T/C under setting [4] is 90 % of control; the T/C under setting [6] was 104 % of control; the T/C under setting [7] was 108 % of control; the T/C under setting [5] is 95 % of control; the T/C under setting [8] is 109 % of control; the T/C under setting [9] is 100 % of control. Also, the T/C reads like this: (dose: 400.0 mg/kg/injection, schedule: Q01DX001 (ip), vehicle: Klucel (hydroxypropylcellulose) (HPC)) 100 % of control; under setting [10], 109 % of control; under setting [11], 95 % of control.

For the compound `CN1OCC2CCCC(c3ccccc3)C21` (stereo not given), the T/C runs as follows: (dose: 50.0 mg/kg/injection, schedule: Q04DX003 (ip), vehicle: Klucel (hydroxypropylcellulose) (HPC)) 100 % of control; under setting [7], 100 % of control; under setting [9], 100 % of control.

In the case of `FC(F)c1nc2nc(Cl)c(Cl)nc2[nH]1`, the T/C was 110 % of control under setting [12]; 120 % of control (dose: 50.0 mg/kg/injection, schedule: Q01DX009 (ip), vehicle: saline with Tween-80); 100 % of control (dose: 50.0 mg/kg/injection, schedule: Q04DX003 (ip), vehicle: saline with Tween-80); 103 % of control (dose: 75.0 mg/kg/injection, schedule: Q01DX009 (ip), vehicle: saline with Tween-80); 109 % of control (dose: 100.0 mg/kg/injection, schedule: Q04DX003 (ip), vehicle: saline with Tween-80).

Regarding `N#C/C(=C\c1ccncc1)c1csc2ccccc12`, the T/C reads like this: (dose: 50.0 mg/kg/injection, schedule: Q01DX011 (ip), vehicle: Klucel (hydroxypropylcellulose) (HPC)) 111 % of control; (dose: 100.0 mg/kg/injection, schedule: Q01DX011 (ip), vehicle: Klucel (hydroxypropylcellulose) (HPC)) 107 % of control; (dose: 200.0 mg/kg/injection, schedule: Q01DX011 (ip), vehicle: Klucel (hydroxypropylcellulose) (HPC)) 107 % of control; (dose: 400.0 mg/kg/injection, schedule: Q01DX011 (ip), vehicle: Klucel (hydroxypropylcellulose) (HPC)) 89 % of control.

Take `CN(C)c1ccc(N=C2C=CC(=O)C=C2)cc1`: the T/C by setting is: (dose: 3.13 mg/kg/injection, schedule: Q01DX009 (ip), vehicle: saline with Tween-80) 107 % of control; (dose: 6.25 mg/kg/injection, schedule: Q01DX009 (ip), vehicle: saline with Tween-80) 112 % of control and 117 % of control; under setting [12], 110 % of control and 117 % of control; (dose: 25.0 mg/kg/injection, schedule: Q01DX009 (ip), vehicle: saline with Tween-80) 118 % of control.

On to `O=c1oc2ccc(Cl)cc2n1Cc1ccc(Cl)cc1`, for which the T/C runs as follows: (dose: 50.0 mg/kg/injection, schedule: Q01DX005 (ip), vehicle: saline with Tween-80) 99 % of control; (dose: 100.0 mg/kg/injection, schedule: Q01DX005 (ip), vehicle: saline with Tween-80) 92 % of control; (dose: 200.0 mg/kg/injection, schedule: Q01DX005 (ip), vehicle: saline with Tween-80) 92 % of control.

Turning to `Cc1ccc(S(=O)(=O)N/N=C/c2ccncc2)cc1`, the T/C is 110 % of control (dose: 12.5 mg/kg/injection, schedule: Q01DX009 (ip), vehicle: other); 117 % of control (dose: 25.0 mg/kg/injection, schedule: Q01DX009 (ip), vehicle: other); 119 % of control (dose: 50.0 mg/kg/injection, schedule: Q01DX009 (ip), vehicle: other); 155 % of control (dose: 200.0 mg/kg/injection, schedule: Q01DX009 (ip), vehicle: other).

For `CC(=O)OC1=NC(C)c2c1cc(OC(C)=O)[nH]c2=O` (stereo not given), the T/C (dose: 6.25 mg/kg/injection, schedule: Q01DX009 (ip), vehicle: Klucel (hydroxypropylcellulose) (HPC)) was 88 % of control; the T/C under setting [1] is 96 % of control; the T/C under setting [2] is 96 % of control; the T/C under setting [7] is 112 % of control; the T/C (dose: 133.0 mg/kg/injection, schedule: Q04DX003 (ip), vehicle: Klucel (hydroxypropylcellulose) (HPC)) was 121 % of control.

With `Nc1ccc2c(c1)OCO2`, the T/C was 104 % of control (dose: 100.0 mg/kg/injection, schedule: Q01DX009 (sc), vehicle: olive oil, sesame oil, peanut oil); 91 % of control (dose: 100.0 mg/kg/injection, schedule: Q04DX003 (sc), vehicle: olive oil, sesame oil, peanut oil); 95 % of control (dose: 200.0 mg/kg/injection, schedule: Q04DX003 (sc), vehicle: olive oil, sesame oil, peanut oil); 116 % of control (dose: 400.0 mg/kg/injection, schedule: Q04DX003 (sc), vehicle: olive oil, sesame oil, peanut oil).
